From PubChem BioAssay AID743420 (The Scripps Research Institute Molecular Screening Center, 2014)
Active and inactive are the calls of the source. How the calls were made is not given here.

The compounds below were run against Sphingosine 1-phosphate receptor 5 (Homo sapiens) (UniProt Q9H228) (assay: S1P5 receptor agonist activity, late-stage follow-up, counter-screen for S1PR3 antagonist project, cell-based, FRET, dose response (AID 743420)). Details: S1P5 cell-based FRET assay, agonist mode.
Sphingosine 1-phosphate receptor 5 (Homo sapiens), sequence (Q9H228 whole entry, looked up): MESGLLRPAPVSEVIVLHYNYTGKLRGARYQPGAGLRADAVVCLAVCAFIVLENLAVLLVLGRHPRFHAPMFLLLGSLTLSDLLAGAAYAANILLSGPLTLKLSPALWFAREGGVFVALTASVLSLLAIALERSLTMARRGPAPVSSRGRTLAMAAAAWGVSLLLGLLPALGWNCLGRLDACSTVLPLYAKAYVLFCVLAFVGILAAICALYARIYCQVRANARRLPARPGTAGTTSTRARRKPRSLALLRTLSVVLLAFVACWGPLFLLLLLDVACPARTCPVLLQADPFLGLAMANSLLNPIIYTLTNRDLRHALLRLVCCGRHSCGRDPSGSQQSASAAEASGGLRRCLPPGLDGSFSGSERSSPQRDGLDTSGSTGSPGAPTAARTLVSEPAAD

Row | SMILES | EC50
1 | O=C(NC(c1cccc(Cl)c1)c1nc(-c2ccccc2)no1)c1ccc(Cl)c(Cl)c1 (configuration not stated) | > 28.2 µM (inactive)
2 | O=C(NC(c1ccc(Cl)c(Cl)c1)c1nc(-c2ccccc2)no1)c1ccc(Cl)c(Cl)c1 (configuration not stated) | > 28.2 µM (inactive)
3 | CCc1ccc(C(NC(=O)c2cccc(Cl)c2)c2nc(-c3ccccc3)no2)cc1 (configuration not stated) | > 28.2 µM (inactive)
4 | O=C(NC(c1ccc(Cl)c(Cl)c1)c1nc(-c2ccccc2)no1)c1ccc(Cl)cc1 (configuration not stated) | > 28.2 µM (inactive)
5 | O=C(NC(c1ccccc1)c1nc(-c2ccccc2)no1)c1cccc(Br)c1 (configuration not stated) | > 28.2 µM (inactive)
6 | O=C(NC(c1ccc(Cl)cc1)c1nc(-c2ccccc2)no1)c1cccc(Cl)c1 (configuration not stated) | > 28.2 µM (inactive)
7 | O=C(NC(c1ccc(Br)cc1)c1nc(-c2ccccc2)no1)c1ccc(Cl)c(Cl)c1 (configuration not stated) | > 28.2 µM (inactive)
8 | O=C(NC(c1ccc(Cl)cc1)c1nc(-c2ccccc2)no1)c1ccc(Cl)c(Cl)c1 (configuration not stated) | > 28.2 µM (inactive)
9 | O=C(NC(c1nc(-c2ccccc2)no1)C1CCCCC1)c1ccc(Cl)c(Cl)c1 (configuration not stated) | > 28.2 µM (inactive)
10 | N#Cc1ccc(C(=O)NC(c2ccc(Cl)c(Cl)c2)c2nc(-c3ccccc3)no2)cc1 (configuration not stated) | > 28.2 µM (inactive)
11 | O=C(c1cccc(Cl)c1)N(CCO)C(c1ccc(Cl)c(Cl)c1)c1nc(-c2ccccc2)no1 (configuration not stated) | > 28.2 µM (inactive)
12 | O=C(NC(c1ccc(Cl)cc1)c1nc(-c2ccccn2)no1)c1cccc(Cl)c1 (configuration not stated) | > 28.2 µM (inactive)
13 | O=C(NC(c1cccc(Cl)c1)c1nc(-c2ccccc2)no1)c1cc(Cl)cc(Cl)c1 (configuration not stated) | > 28.2 µM (inactive)
14 | Cc1ccc(C(NC(=O)c2cccc(Cl)c2)c2nc(-c3ccccc3)no2)cc1 (configuration not stated) | > 28.2 µM (inactive)

Now from value to compound:

Row | EC50 | SMILES
15 | > 28.2 µM (inactive) | O=C(NC(c1ccc(Cl)c(Cl)c1)c1nc(-c2ccccc2)no1)c1ccccc1 (configuration not stated)
16 | > 28.2 µM (inactive) | O=C(NC(c1ccc(Cl)cc1)c1nc(-c2ccccc2)no1)c1ccc(Cl)c(Br)c1 (configuration not stated)
17 | > 28.2 µM (inactive) | O=C(NC(c1nc(-c2ccccc2)no1)C1CCOCC1)c1ccc(Cl)c(Cl)c1 (configuration not stated)
18 | > 28.2 µM (inactive) | O=C(NC(c1ccc(Cl)cc1)c1nc(-c2ccccc2)no1)c1cccc(Br)c1 (configuration not stated)
19 | > 28.2 µM (inactive) | O=C(NC(Cc1ccccc1)c1nc(-c2ccccc2)no1)c1cccc(Cl)c1 (configuration not stated)
20 | > 28.2 µM (inactive) | O=C(NC(c1cccc(Cl)c1)c1nc(-c2ccccc2)no1)c1cccc(Cl)c1 (configuration not stated)
21 | > 28.2 µM (inactive) | O=C(NC(c1ccccc1)c1nc(-c2ccccc2)no1)c1cccc(Cl)c1 (configuration not stated)
22 | > 28.2 µM (inactive) | COc1ccc(C(=O)NC(c2ccccc2)c2nc(-c3ccccc3)no2)cc1 (configuration not stated)
23 | > 28.2 µM (inactive) | O=C(NC(c1ccccc1)c1nc(-c2ccccc2)no1)c1cccc(Cl)n1 (configuration not stated)
24 | > 28.2 µM (inactive) | O=C(NC(c1ccc(Cl)cc1)c1nc(-c2cccc(Cl)c2)no1)c1cccc(Cl)c1 (configuration not stated)
25 | > 28.2 µM (inactive) | Cc1ccc(C(=O)NC(c2ccccc2)c2nc(-c3ccccc3)no2)cc1 (configuration not stated)
26 | > 28.2 µM (inactive) | O=C(NC(c1ccc(Cl)c(Cl)c1)c1nc(-c2ccccc2)no1)c1cccc(Cl)c1 (configuration not stated)
27 | > 28.2 µM (inactive) | O=C(NC(c1ccccc1)c1nc(-c2ccccc2)no1)c1ccc(Cl)cc1 (configuration not stated)
